Laboratory results published in patent publication US11149047B2, “Aryl imidazoles for treatment of cancer” (Aptose Biosciences Inc., priority 2017, dated 2021).

Key:
[1] = system: G4 sequences (telomere, MYC, KIT, rRNA oligos); assay: Modified FRET assay, melting of G-quadruplex oligos; type: binding, human; conditions: FIG. 13C; COMPOUND I data at 6-hour incubation
Protocol: FRET assay and data analysis was performed as described previously and modified by using dual labeled (5′ FAM-3′ BHQ1) single-stranded oligos. Melting temperature of each oligo was assessed in the presence of vehicle DMSO or escalating concentrations of COMPOUND I, Fe(COMPOUND I)3, CX-5461, or TMPyP4 using a Roche LightCycler 96 [at 37° C. for 300 seconds followed by temperature increased in […] intervals up to 91° C. (25 steps) with 300-second total incubation time at each temperature]. Drug and oligo reaction mixes were analyzed immediately or incubated for 6 hours at room temperature and then analyzed. […] COMPOUND I data are presented for 6-hour time point.
The ability of COMPOUND I (parental monomeric form of the drug) and Fe(COMPOUND I)3 to bind and stabilize G4 sequences using a modified FRET assay was evaluated (FIGS. 21 and 22). TMPyP4, a well-known G4 ligand, and CX-5461, a clinical stage molecule recently reported to have G4-binding properties, were utilized as controls to assess the specificity of COMPOUND I and Fe(COMPOUND I)3 for G4-stabilizing activity.

Raji cells = assay: Cytotoxicity study, MTS cell proliferation assay, 5 days; type: cell-based, human; conditions: concentrations up to 300 nM, FIG. 5C
Protocol: (§1) The human Burkitt lymphoma cell line Raji was obtained from the American Type Tissue Culture Collection and cultured in RPMI 1640 medium (ATCC) supplemented with 10% fetal bovine serum (ATCC,) at 37° C., 5% CO2. The COMPOUND I-resistant Raji (Raji/COMPOUND IR) cell line was generated by exposure to progressively higher concentrations of COMPOUND I over a period of 6 months. CAOV3 cells were obtained from ATCC and cultured in complete DMEM supplemented with 10% fetal bovine serum. MCF7 vector controlled and BRCA1 shRNA subclones were obtained from Dr. Simon Powell (Memorial Sloan-Kettering Cancer Center) and cultured in EMBM with 10% fetal bovine serum. MCF10A and hTERT-IMEC clones were obtained from Dr. Ben Ho Park (Johns Hopkins University). HCT116 BRCA2^+/+ cells and BRCA2^−/− cells were obtained from Dr. Samuel Aparicio (British Columbia Cancer Research Centre). PEO1 and PEO4 cells were obtained from Dr. Sharon Cantor (University of Massachusetts) and these cell lines were cultured under the same conditions as previously published. Sakai et al., Functional restoration of BRCA2 protein by secondary BRCA2 mutations in BRCA2-mutated ovarian carcinoma, Cancer Res. 2009; 69 (16):6381-6; Konishi et al., Mutation of a single allele of the cancer susceptibility gene BRCA1 leads to genomic instability in human breast epithelial cells, Proc. Natl. Acad. Sci. 2011; 108 (43):17773-8; Xu et al., CX-5461 is a DNA G-quadruplex stabilizer with selective lethality in BRCA1/2 deficient tumours, Nature Communications 2017; 8:14432, all of which are hereby incorporated by reference.
(§2) Cells were plated and treated with the indicated drugs in 96-well plates for 5 days. Cell viability was measured using CellTiter 96 AQueous one solution (MTS) cell proliferation assay purchased from Promega, and IC50 values were calculated using GraphPad Prism 6 Software.

Raji/COMPOUND IR cells = assay: as above; type: cell-based, human
Protocol: as §1, §2

[2] = system: hTERT-IMEC BRCA1 knock-in clone; assay: Sensitivity of BRCA1-proficient and -deficient isogenic clones; type: cell-based, human; conditions: FIG. 3B
Protocol: as §2
(§3) The finding that COMPOUND I produced DNA damage led to the investigation of whether cells deficient in homologous recombination were hypersensitive to this drug. The hypothesis that there would be synthetic lethality between COMPOUND I and BRCA1 deficiency using isogenic pairs of BRCA1-proficient and -deficient human cell lines was tested. […] The conclusion that BRCA1-deficient cells are hypersensitive to COMPOUND I was further supported by the results obtained in MCF7 E7 cells in which BRCA1 expression is stably knocked down by the expression of an shRNAi. […] Whether BRCA2-deficient cells are more sensitive to COMPOUND I was tested using the BRCA2-proficient and BRCA2-deficient ovarian cancer cell lines, PEO4 and PEO1, respectively. PEO1 is BRCA2-deficient and sensitive to cisplatin and a poly(ADP-ribose) polymerase inhibitor AG14361. PEO4 was derived from ascites at the time of relapse with cisplatin resistance and contains a secondary mutation that restores BRCA2 function. […] Thus, loss of either BRCA1 or BRCA2 function renders malignant cells hypersensitive to COMPOUND I.

[3] = system: MCF10A BRCA1-het #1 and #2 clones vs control; assay: as above; type: cell-based, human; conditions: FIG. 3A
Protocol: as §2, §3

[4] = system: PEO4 and PEO1 ovarian cancer cell lines; assay: Sensitivity of BRCA2-proficient and -deficient cells; type: cell-based; conditions: FIG. 3D
Protocol: as §2, §3

Cc1cnc(CNC(=O)c2c(=O)c3ccc(N4CCCN(C)CC4)nc3n3c2sc2ccccc23)cn1 [CX-5461]
stabilization of G4 sequences (ΔT1/2) [1]: potent stabilizer of all G4 sequences tested

COc1ccc2c3c([nH]c2c1)[C@H](CC(C)C)N1C(=O)[C@H](CCC(=O)OC(C)(C)C)NC(=O)[C@@H]1C3 [Ko143, reference compound]
toxicity of Ko143 alone (Raji cells): not toxic
toxicity of Ko143 alone (Raji/COMPOUND IR cells; concentrations up to 300 nM, FIG. 5C): not toxic

C[n+]1ccc(-c2c3nc(c(-c4cc[n+](C)cc4)c4ccc([nH]4)c(-c4cc[n+](C)cc4)c4ccc([nH]4)c(-c4cc[n+](C)cc4)c4nc2C=C4)C=C3)cc1 [TMPyP4]
stabilization of G4 sequences (ΔT1/2) [1]: stabilized all G4 motifs except the G4 of the KIT gene promoter

N.N.O=C([O-])C1(C(=O)[O-])CCC1.[Pt+2] [carboplatin, reference compound]
sensitivity of Raji/COMPOUND IR cells relative to Raji (Raji/COMPOUND IR cells): significantly cross-resistant

COc1cc([C@@H]2c3cc4c(cc3[C@@H](O[C@@H]3O[C@@H]5CO[C@@H](C)O[C@H]5[C@H](O)[C@H]3O)[C@H]3COC(=O)[C@H]23)OCO4)cc(OC)c1O [etoposide, reference compound]
sensitivity of Raji/COMPOUND IR cells relative to Raji (Raji/COMPOUND IR cells): hypersensitive

O=C(c1cc(Cc2n[nH]c(=O)c3ccccc23)ccc1F)N1CCN(C(=O)C2CC2)CC1 [olaparib, reference compound]
sensitivity of BRCA1 2-bp knock-in clone [2]: hypersensitive to both olaparib and COMPOUND I
sensitivity of BRCA1-het knockin clones vs control [3]: more sensitive to olaparib
effect of restoration of BRCA2 function (PEO4 vs PEO1) [4]: increased resistance

CC[C@@]1(O)C(=O)OCc2c1cc1n(c2=O)Cc2cc3c(CN(C)C)c(O)ccc3nc2-1 [topotecan, reference compound]
cross-resistance of Raji/COMPOUND IR cells (Raji/COMPOUND IR cells; vs Raji): 3 fold
effect of Ko143 on topotecan resistance (Raji/COMPOUND IR cells; with Ko143, FIG. 5E): reversed this resistance completely
